Test system: Mitochondria-located protein genes
Assay: DNA chip mRNA expression in yeast, mitochondria-located protein genes (Table 2)
Assay type: cell-based, Saccharomyces cerevisiae S288C
Conditions: cells incubated two hours with the chemical substance
How it was run: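 Value is the scanned fluorescence intensity ratio of exposed versus chemical-free cells. Log-phase S288C yeast in YPD at 25° C. received one toxic substance for two hours, dosed to slow growth without killing; Cy3/Cy5-labeled cDNA from oligo-dT-purified mRNA was hybridized to a whole-genome chip at 65° C.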

With `[Cl][Hg][Cl]` [(3), HgCl2] the “The level of expressed mRNA in the presence of chemical substance/The level of expressed mRNA in the absence of chemical substance” value (yeast gene YAL039C) was 1.7, the “The level of expressed mRNA in the presence of chemical substance/The level of expressed mRNA in the absence of chemical substance” value (yeast gene YBL022C) was 1.2 and the “The level of expressed mRNA in the presence of chemical substance/The level of expressed mRNA in the absence of chemical substance” value (yeast gene YBL030C) was 4.5. For the same molecule, the “The level of expressed mRNA in the presence of chemical substance/The level of expressed mRNA in the absence of chemical substance” value (yeast gene YBL038W) was 0.5, the “The level of expressed mRNA in the presence of chemical substance/The level of expressed mRNA in the absence of chemical substance” value (yeast gene YBL099W) was 3.1 and the “The level of expressed mRNA in the presence of chemical substance/The level of expressed mRNA in the absence of chemical substance” value (yeast gene YBR003W) was 1.0. For the same molecule, the “The level of expressed mRNA in the presence of chemical substance/The level of expressed mRNA in the absence of chemical substance” value (yeast gene YBR044C) was 0.7, the “The level of expressed mRNA in the presence of chemical substance/The level of expressed mRNA in the absence of chemical substance” value (yeast gene YBR091C) was 0.6 and the “The level of expressed mRNA in the presence of chemical substance/The level of expressed mRNA in the absence of chemical substance” value (yeast gene YBR122C) was 0.3. For the same molecule, the “The level of expressed mRNA in the presence of chemical substance/The level of expressed mRNA in the absence of chemical substance” value (yeast gene YBR185C) was 1.3, the “The level of expressed mRNA in the presence of chemical substance/The level of expressed mRNA in the absence of chemical substance” value (yeast gene YBR221C) was 3.2 and the “The level of expressed mRNA in the presence of chemical substance/The level of expressed mRNA in the absence of chemical substance” value (yeast gene YBR251W) was 1.0. For the same molecule, the “The level of expressed mRNA in the presence of chemical substance/The level of expressed mRNA in the absence of chemical substance” value (yeast gene YBR282W) was 0.5, the “The level of expressed mRNA in the presence of chemical substance/The level of expressed mRNA in the absence of chemical substance” value (yeast gene YCL057W) was 2.3 and the “The level of expressed mRNA in the presence of chemical substance/The level of expressed mRNA in the absence of chemical substance” value (yeast gene YCR046C) was 1.2. The “The level of expressed mRNA in the presence of chemical substance/The level of expressed mRNA in the absence of chemical substance” value (yeast gene YCR083W) was 1.5, the “The level of expressed mRNA in the presence of chemical substance/The level of expressed mRNA in the absence of chemical substance” value (yeast gene YDL067C) was 1.6 and the “The level of expressed mRNA in the presence of chemical substance/The level of expressed mRNA in the absence of chemical substance” value (yeast gene YDL181W) was 1.9. For the same molecule, the “The level of expressed mRNA in the presence of chemical substance/The level of expressed mRNA in the absence of chemical substance” value (yeast gene YDL198C) was 2.1, the “The level of expressed mRNA in the presence of chemical substance/The level of expressed mRNA in the absence of chemical substance” value (yeast gene YDR079W) was 0.8 and the “The level of expressed mRNA in the presence of chemical substance/The level of expressed mRNA in the absence of chemical substance” value (yeast gene YDR178W) was 3.4. For the same molecule, the “The level of expressed mRNA in the presence of chemical substance/The level of expressed mRNA in the absence of chemical substance” value (yeast gene YDR231C) was 1.0, the “The level of expressed mRNA in the presence of chemical substance/The level of expressed mRNA in the absence of chemical substance” value (yeast gene YDR258C) was 2.8 and the “The level of expressed mRNA in the presence of chemical substance/The level of expressed mRNA in the absence of chemical substance” value (yeast gene YDR298C) was 2.6. The “The level of expressed mRNA in the presence of chemical substance/The level of expressed mRNA in the absence of chemical substance” value (yeast gene YDR347W) was 0.9, the “The level of expressed mRNA in the presence of chemical substance/The level of expressed mRNA in the absence of chemical substance” value (yeast gene YDR377W) was 1.3 and the “The level of expressed mRNA in the presence of chemical substance/The level of expressed mRNA in the absence of chemical substance” value (yeast gene YDR529C) was 0.9. For the same molecule, the “The level of expressed mRNA in the presence of chemical substance/The level of expressed mRNA in the absence of chemical substance” value (yeast gene YEL024W) was 3.8, the “The level of expressed mRNA in the presence of chemical substance/The level of expressed mRNA in the absence of chemical substance” value (yeast gene YEL039C) was 1.3 and the “The level of expressed mRNA in the presence of chemical substance/The level of expressed mRNA in the absence of chemical substance” value (yeast gene YER178W) was 3.6. For the same molecule, the “The level of expressed mRNA in the presence of chemical substance/The level of expressed mRNA in the absence of chemical substance” value (yeast gene YFL016C) was 1.6, the “The level of expressed mRNA in the presence of chemical substance/The level of expressed mRNA in the absence of chemical substance” value (yeast gene YGL018C) was 1.8 and the “The level of expressed mRNA in the presence of chemical substance/The level of expressed mRNA in the absence of chemical substance” value (yeast gene YGL187C) was 1.6. For the same molecule, the “The level of expressed mRNA in the presence of chemical substance/The level of expressed mRNA in the absence of chemical substance” value (yeast gene YGL191W) was 1.4, the “The level of expressed mRNA in the presence of chemical substance/The level of expressed mRNA in the absence of chemical substance” value (yeast gene YGR008C) was 1.7 and the “The level of expressed mRNA in the presence of chemical substance/The level of expressed mRNA in the absence of chemical substance” value (yeast gene YGR028W) was 1.0. The “The level of expressed mRNA in the presence of chemical substance/The level of expressed mRNA in the absence of chemical substance” value (yeast gene YGR062C) was 0.7, the “The level of expressed mRNA in the presence of chemical substance/The level of expressed mRNA in the absence of chemical substance” value (yeast gene YGR076C) was 0.6 and the “The level of expressed mRNA in the presence of chemical substance/The level of expressed mRNA in the absence of chemical substance” value (yeast gene YGR082W) was 2.2. The “The level of expressed mRNA in the presence of chemical substance/The level of expressed mRNA in the absence of chemical substance” value (yeast gene YGR174C) was 0.6, the “The level of expressed mRNA in the presence of chemical substance/The level of expressed mRNA in the absence of chemical substance” value (yeast gene YGR244C) was 1.6 and the “The level of expressed mRNA in the presence of chemical substance/The level of expressed mRNA in the absence of chemical substance” value (yeast gene YHR008C) was 4.8. For the same molecule, the “The level of expressed mRNA in the presence of chemical substance/The level of expressed mRNA in the absence of chemical substance” value (yeast gene YIL155C) was 1.4, the “The level of expressed mRNA in the presence of chemical substance/The level of expressed mRNA in the absence of chemical substance” value (yeast gene YJL096W) was 0.8 and the “The level of expressed mRNA in the presence of chemical substance/The level of expressed mRNA in the absence of chemical substance” value (yeast gene YJL102W) was 0.4. The “The level of expressed mRNA in the presence of chemical substance/The level of expressed mRNA in the absence of chemical substance” value (yeast gene YJL133W) was 2.0, the “The level of expressed mRNA in the presence of chemical substance/The level of expressed mRNA in the absence of chemical substance” value (yeast gene YJL166W) was 1.6 and the “The level of expressed mRNA in the presence of chemical substance/The level of expressed mRNA in the absence of chemical substance” value (yeast gene YJL180C) was 1.1. For the same molecule, the “The level of expressed mRNA in the presence of chemical substance/The level of expressed mRNA in the absence of chemical substance” value (yeast gene YJR045C) was 3.9 and the “The level of expressed mRNA in the presence of chemical substance/The level of expressed mRNA in the absence of chemical substance” value (yeast gene YJR077C) was 2.0.

Source: patent US8192962B2, “Processes for detecting toxic substances” (Daikin Industries, Ltd., priority 2001, dated 2012)
